The record followed here is publication PMC8535866, “TMEM16A, a Homoharringtonine Receptor, as a Potential Endogenic Target for Lung Cancer Treatment” (International Journal of Molecular Sciences, 2021).

Assay [1] deals with T1, TMEM16A (Mus musculus, UniProt Q8BHY3, K769A).
T1 construct: gene Ano1; TMEM16A mutant plasmid
T1 sequence (Q8BHY3 1-960 K769A): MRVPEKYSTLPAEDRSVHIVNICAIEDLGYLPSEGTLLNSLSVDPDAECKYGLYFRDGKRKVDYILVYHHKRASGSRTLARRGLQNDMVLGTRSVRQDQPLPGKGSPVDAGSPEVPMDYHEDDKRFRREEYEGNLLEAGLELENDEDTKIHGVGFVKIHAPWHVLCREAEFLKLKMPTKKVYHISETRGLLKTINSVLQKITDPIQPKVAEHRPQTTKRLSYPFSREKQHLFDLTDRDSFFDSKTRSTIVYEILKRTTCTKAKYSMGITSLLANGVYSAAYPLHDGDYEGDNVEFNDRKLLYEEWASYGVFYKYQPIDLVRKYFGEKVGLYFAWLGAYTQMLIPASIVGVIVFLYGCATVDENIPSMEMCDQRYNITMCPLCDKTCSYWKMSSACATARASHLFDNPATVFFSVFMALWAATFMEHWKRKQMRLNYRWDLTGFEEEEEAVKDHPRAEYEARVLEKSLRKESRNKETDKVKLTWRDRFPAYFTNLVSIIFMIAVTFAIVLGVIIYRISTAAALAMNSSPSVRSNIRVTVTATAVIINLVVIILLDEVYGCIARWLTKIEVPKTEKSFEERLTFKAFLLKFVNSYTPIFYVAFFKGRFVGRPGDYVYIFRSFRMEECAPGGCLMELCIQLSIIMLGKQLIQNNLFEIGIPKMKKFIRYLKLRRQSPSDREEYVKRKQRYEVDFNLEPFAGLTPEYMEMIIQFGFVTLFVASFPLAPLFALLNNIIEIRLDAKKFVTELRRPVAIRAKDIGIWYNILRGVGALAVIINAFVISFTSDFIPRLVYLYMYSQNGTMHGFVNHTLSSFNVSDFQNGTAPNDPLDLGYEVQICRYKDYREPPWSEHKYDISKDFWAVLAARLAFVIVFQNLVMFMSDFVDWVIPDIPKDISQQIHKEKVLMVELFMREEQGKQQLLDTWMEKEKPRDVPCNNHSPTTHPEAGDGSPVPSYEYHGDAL
The assay is described as follows: whole-cell patch clamp of TMEM16A mutant. In kind it is cell-based. (Patch clamp records ionic current or voltage across a cell membrane.)

For assay [2], the target named is T2, TMEM16A (Mus musculus, UniProt Q8BHY3).
T2 construct: gene Ano1; endogenous TMEM16A in LA795 cells
T2 sequence (Q8BHY3 1-960): T1 sequence (Q8BHY3 1-960 K769A) with A769K
The assay is described as follows: whole-cell patch clamp in LA795 cells, Hill fit. In kind it is cell-based.

Residue numbers refer to the chain shown, from its start.

For `COC(=O)C[C@](O)(CCCC(C)(C)O)C(=O)O[C@@H]1C(OC)=C[C@]23CCCN2CCc2cc4c(cc2[C@H]13)OCO4` [HHT, Homoharringtonine], the values for the IC50 in assay [1] and in assay [2] were 70.8 ± 24.3 µM and 11.4 ± 1.68 µM, respectively.

For orientation: IC50 means the concentration at which inhibition is half-maximal. Lower therefore signals higher potency.
